Laboratory results from US7825103B2, “Pyrimidine nucleoside compound or its salt” (Taiho Pharmaceutical Co., Ltd., priority 2005, dated 2010).

How the values were obtained:
[1] = tested on: Human large intestine cancer cell strain KM20C; assay: Anti-tumor test using nude mouse subcutaneous implantation system with peroral administration of CNDAC compound; format: in vivo, BALB/cA Jcl-nu mice; conditions: Mus musculus, sc, 696 h; peroral once a day for 14 days, dose equivalent by mole to 18 mg/kg/day of CNDAC; day 29 after grouping; KM20C subcutaneous implant; read-out: IR (%) tumor growth inhibition rate
Method: (§1) Human large intestine cancer cell strain KM20C was subcutaneously subcultured in BALB/cA Jcl-nu mice (CLEA Japan, Inc.), and the resultant cancer tissues were cut into 2 mm dice fragments. Each of the fragments was subcutaneously implanted to a 6-week-old BALB/cA Jcl-nu mouse at the back thereof. On day 14 after the implantation, large and small diameters of the resultant tumor were measured, and the volume of the tumor was calculated by the following equation. The mice were grouped (6 animals per group) so that the groups were roughly equal in terms of average tumor volume. Vt=½(Vl)×(Vs)^2 (Equation 1) In the equation, Vt represents tumor volume, Vl represents large diameter of tumor, and Vs represents small diameter of tumor.
Each CNDAC compound was dissolved or suspended in 0.5% hydroxypropyl methyl cellulose solution which had been buffered with 100 mM citrate buffer (pH 6.0). From the next day after grouping, the mixture was perorally administered to each mouse once a day for consecutive 14 days in a dose which is equivalent, by mole, to 18 mg/kg/day of CNDAC.
On day 29 after the grouping, large and small diameters of the subcutaneously implanted tumor of each mouse were measured, and relative tumor volume (RTV) and inhibition rate (IR) were calculated by the following equations to evaluate anti-tumor effect of the compound. RTV=Vt1/Vt2 (Equation 2) In the equation, RTV represents ratio of tumor volume, Vt1 represents tumor volume measured on the day of determination, and […]. IR(%)=[1−(RTVtest)/(RTVcont)]×100 (Equation 3) In the equation, IR represents tumor growth inhibition rate, RTVtest represents mean RTV value of a drug-administered group, and RTVcont represents mean RTV value of a non-treatment group.

[2] = tested on: Human large intestine cancer cell strain KM20C; assay: Anti-tumor test using nude mouse subcutaneous implantation system, peroral administration in an equitoxic dose; format: in vivo, BALB/cA Jcl-nu mice; conditions: peroral once a day for 14 days, FIG. 1
Method: as §1, with “15” for “14”, “through use of” for “by”, “the” for “the groups were roughly equal in terms of”, “volume was common to each group.” for “volume.”, “5)” for “1)”
CNDAC, P-CNDAC, or Compound 19 was dissolved or suspended in 0.5% hydroxypropyl methyl cellulose solution which had been buffered with 100 mM citrate buffer (pH 5.0). From the next day of grouping, the mixture was perorally administered to each mouse once a day for consecutive 14 days in an equitoxic dose.
Large and small diameters of the subcutaneously implanted tumor of each mouse were measured twice a week, and relative tumor volume (RTV) was calculated as an index indicating tumor growth through use of the following equations to evaluate anti-tumor effect of the compound. RTV=Vt1/Vt2 (Equation 6) In the equation, RTV represents ratio of tumor volume, Vt1 represents tumor volume measured on the day of determination, and Vt2 represents tumor volume measured on the day of grouping.

For CC(C)C(C)(C)[Si](C)(C)O[C@H]1[C@H](C#N)[C@H](n2ccc(N)nc2=O)O[C@@H]1CO [Example 19, 3′-O-Dimethylthexylsilyl-2′-cyano-2′-deoxy-1-β-D-arabinofuranosylcytosine], which inhibition in vivo [1] is on record?
Its inhibition in vivo is 89%.

And the deletion of tumor ([2]; 6 animals per group)?
Its deletion of tumor is “deletes tumor in three cases in total six cases”.

And the “change in tumor volume (RTV)” value [2]?
The value was “greatly reduces the tumor volume as compared with CNDAC and P-CNDAC”.

What about the melting point of the same molecule?
Its melting point is 159 to 161 °C.
